Laboratory results as given in EP2478902A1, “PHARMACEUTICAL COMPOSITION FOR REDUCING WEIGHT AND METHOD FOR THE PRODUCTION THEREOF” (World-Trade Import-Export Wtie, AG, priority 2009, dated 2011).

Legend:
[1] = Comparative, open-label, controlled clinical trial of Orlistat/L-Carnitine (OL-CA) vs Orlistat (OL) and L-Carnitine (CA) in adults with overweight above 10 %; assay type: in vivo, human; details: end of treatment (12 weeks), n = 20 per group; for subjects who reached a normal weight: one capsule a day
Procedure: A randomised, parallel, cross-over, prospective, open-label clinical trial.
Male and/or female subjects aged above 18 years, with overweight above 10 % their ideal weight.
• Group 1. Orlistat (OL) 120 mg, one capsule a day for 12 weeks. • Group 2. L-Carnitine (CA) 600 mg, one capsule a day for 12 weeks. • Group 3. Orlistat 120 mg and L-Carnitine 600 mg (OL-CA) in one capsule a day for 12 weeks.
• No other drug therapy was permitted for obesity and overweigh using any administration route during the clinical trial.
• Three treatment groups with random distribution 1:!;1
• Male and/or female subjects over 18 years of age. • Overweight above 10 % of their ideal weight or a Body Mass Index (BMI) of 28 kg/m2 or higher. • Poor response to previous diet therapy. • No participation in a clinical trial with a test drug or device for 30 days before the planned start of treatment. • Patients with or without risk factors associated with obesity (type 2 diabetes and systemic hypertension). • Following a nutritionally balanced and moderately hypocaloric plan containing about 30 % of calories from fat. • Women with child-bearing potential should use some contraceptive method during the treatment.
• Under 18 years of age • History of hypersensitivity to the components of the formula • Patients with any organ failure • Patients with a history of intolerance to lactose • Patients with a history of bowel malabsorption syndrome and cholestasis • Patients with suspected or diagnosed pancreatic disorder • Pregnant and/or nursing women • Diagnosed or suspected thyroid disorder • Patients currently on anticoagulants or cyclosporine and amiodarone.
Randomisation in to the study was stratified at a 1:1:1 ratio. The subjects were classified according to their body mass index. • Group A, 20 subjects with overweight, BMI of 25 to 29.9 kg/m2 • Group B, 20 subjects with grade 2 obesity, BMI of 30-39 kg/m2 • Group C, 20 subjects with grade 3 obesity BMI above 40 kg/m2 With regard to the BMI, the following values and interpretation are given • BMI 20 to 25 kg/m^2 = normal weight • BMI 25 to 29.9 kg/m^2 = Overweight • BMI 30 to 39 kg/m^2 - Grade 2 obesity • BMI above 40 kg/m^2 = Grade 3 obesity

[2] = 2,000 mg/day of L-Carnitine, 26 weeks, diet of 1,400 to 1,600 Kcal/day; cited from earlier work
[3] = 3,000 mg/day of L-Carnitine, 10 weeks, calorie restriction, increased physical activity; cited from earlier work
[4] = 15 mg/kg/day of L-Carnitine, 26 weeks, cited from earlier work

| SMILES | patients reaching grade 2 obesity [1] | patients reaching grade 2 obesity (number) [1] | subjects who documented overweight [1] | subjects who documented overweight (number) [1] | subjects who reached a normal weight (number) [1] | subjects with grade 3 obesity [1] | subjects with grade 3 obesity (number) [1] | subjects who reached a normal weight [1] | weight loss or differences between the groups at the end of the study [2] | weight loss between the two groups [3] | weight loss in the treatment group ([4]; restriction of 1,500 Kcal in diet, 60 subjects with obesity) | weight loss (significance) [4] |
| --- | --- | --- | --- | --- | --- | --- | --- | --- | --- | --- | --- | --- |
| C[N+](C)(C)C[C@H](O)CC(=O)[O-] [CA, L-Carnitine] | 75% | 15 subjects | 15% | 3 subjects | one | 5% | 1 subjects | 5% | No significant weight loss or differences between the groups | No significant weight loss | 1.9 kg | not significant |
| CCCCCCCCCCC[C@@H](C[C@@H]1OC(=O)[C@H]1CCCCCC)OC(=O)[C@H](CC(C)C)NC=O [OL] | 65% | 13 subjects | 10% | 2 subjects | one | 20% | 4 subjects | 5% | – | – | – | – |
